Test results published in US7268124B2, “Geranylgeranyl pyrophosphate synthase inhibitors” (University of Iowa Research Foundation, priority 2004, dated 2007).
Counter-ions that a name gives are not always drawn.

Legend:
Format in all cases: biochemical
FPTase = FPTase (Homo sapiens, UniProt P49356); test: FPTase enzyme inhibition; settings: mammalian enzyme; also no inhibition at 1 to 10 nanomolar; read-out: FPTase: not inhibited at concentrations as high as
From the text: The ability of a compound of the invention to act as an inhibitor of geranylgeranyl pyrophosphate synthase may be determined using pharmacological models which are well known to the art, for example see Holstein, S. A., et al., Biochemistry 2003, 42, 4384-4391; and Ericsson et al, J. Biological Chemistry, 1993, 268, 832-838. The ability of a compound to inhibit FPP synthase, FPTase, and GGPTase can also be determined using pharmacological models which are well known to the art. The selectivity of a compound as an inhibitor of geranylgeranyl pyrophosphate synthase can be evaluated by comparing it's inhibitory activity against this enzyme with it's activity against another enzyme. In one embodiment of the invention, the compound of the invention is at least 2-fold selective for inhibiting geranylgeranyl pyrophosphate synthase compared to farnesylpyrophosphate. In another embodiment the compound is at least 10-fold selective for inhibiting geranylgeranyl pyrophosphate synthase compared to farnesylpyrophosphate. In another embodiment the compound is at least about 100-fold selective for inhibiting geranylgeranyl pyrophosphate synthase compared to farnesylpyrophosphate. In another embodiment of the invention, the compound of the invention is at least 2-fold selective for inhibiting geranylgeranyl pyrophosphate synthase compared to FPTase or GGPTase. […]

FPP synthase = molecular target: T1, FPP synthase (Homo sapiens, UniProt P14324); test: FPP synthase enzyme inhibition; settings: mammalian enzyme; also no inhibition at 1 to 10 nanomolar; read-out: FPP synthase: not inhibited at concentrations as high as
T1 sequence (P14324 1-419): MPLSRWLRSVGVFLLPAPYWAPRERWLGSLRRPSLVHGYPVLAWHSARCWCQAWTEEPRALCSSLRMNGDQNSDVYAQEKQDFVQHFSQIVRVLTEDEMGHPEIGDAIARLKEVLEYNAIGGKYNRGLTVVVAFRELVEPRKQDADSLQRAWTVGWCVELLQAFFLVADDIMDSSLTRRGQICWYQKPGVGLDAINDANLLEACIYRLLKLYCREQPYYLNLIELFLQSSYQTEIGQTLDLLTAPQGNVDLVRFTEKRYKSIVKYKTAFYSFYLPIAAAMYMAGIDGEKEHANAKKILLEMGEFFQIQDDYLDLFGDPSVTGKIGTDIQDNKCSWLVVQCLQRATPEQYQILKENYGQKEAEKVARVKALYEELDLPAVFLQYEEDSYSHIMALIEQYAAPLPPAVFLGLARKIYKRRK
From the text: (§1) The ability of a compound of the invention to act as an inhibitor of geranylgeranyl pyrophosphate synthase may be determined using pharmacological models which are well known to the art, for example see Holstein, S. A., et al., Biochemistry 2003, 42, 4384-4391; and Ericsson et al, J. Biological Chemistry, 1993, 268, 832-838. The ability of a compound to inhibit FPP synthase, FPTase, and GGPTase can also be determined using pharmacological models which are well known to the art. The selectivity of a compound as an inhibitor of geranylgeranyl pyrophosphate synthase can be evaluated by comparing it's inhibitory activity against this enzyme with it's activity against another enzyme.

mammalian GGPP synthase = molecular target: T2, mammalian GGPP synthase (Homo sapiens, UniProt O95749); test: GGPP synthase enzyme inhibition; settings: read-out: concentration range that inhibits GGPP synthase by 50%
T2 sequence (O95749 1-300): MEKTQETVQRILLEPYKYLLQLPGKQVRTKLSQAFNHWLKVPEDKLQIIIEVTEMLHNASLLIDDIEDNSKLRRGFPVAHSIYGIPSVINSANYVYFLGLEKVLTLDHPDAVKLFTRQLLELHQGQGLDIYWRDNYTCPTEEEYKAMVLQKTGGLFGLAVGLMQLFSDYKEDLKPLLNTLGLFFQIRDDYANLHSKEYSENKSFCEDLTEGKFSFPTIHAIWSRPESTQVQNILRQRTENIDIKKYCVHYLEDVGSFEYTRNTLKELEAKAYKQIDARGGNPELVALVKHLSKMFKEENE
From the text: as §1

IC50 (mammalian GGPP synthase) [µM]	Compound	IC50 (FPTase) [µM]	IC50 (FPP synthase) [µM]
–	CC(C)=CCC/C(C)=C/CC(C/C=C(\C)CCC=C(C)C)(P(=O)(O)O)P(=O)(O)O [Compound 12, 1-(3,7-dimethyl-octa-2,6-dienyl)-4,8-dimethyl-nona-3,7-dienyl-1,1-bisphosphonic acid, tetrasodium salt]	> 50	> 50
0.001 to 0.01	CC(C)=CCC/C(C)=C/CC(C/C=C(\C)CCC=C(C)C)(P(=O)(OCOC(=O)C(C)(C)C)OCOC(=O)C(C)(C)C)P(=O)(OCOC(=O)C(C)(C)C)OCOC(=O)C(C)(C)C [Compound 13, tetrapivaloyloxymethyl (E)-1,1-bis(4,8-dimethyl-nona-3,7-dienyl)-1,1-bisphosphonate]	> 50	> 50
